From PubChem BioAssay AID463199 (Broad Institute, 2010) come the findings set out here.

Calls of active or inactive are those of the source.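 Rule for the calls: active = AC50, the dose giving half-maximal effect, exceeds a fixed cutoff for a compound that rescues yeast growth under heat; inactive = the rest, inconclusive results apart.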 Where a SMILES comes first, the peptide text is derived from it.

The assay relates to S. cerevisiae Burl-1 ts mutant growth, BacTiter-Glo, 38.5C 24 h. The assay can be described thus: growth induction of Burl-1 ts yeast mutant, dose response, counter-screen for SUMOylation pathway inhibitor project, whole organism, S. cerevisiae, luminescence (AID 463199).
`O=C(OCC#CCSc1nnc(-c2ccccc2)o1)c1cc2ccccc2o1`: the AC50 was > 42 µM (inactive).

Regarding `CCc1noc(C)c1C(=O)Nc1nc(-c2ccc(F)cc2)c(C)s1`, the AC50 was > 42 µM (inactive).

Consider `Cc1cccc(CSc2ccc(-c3ccco3)nn2)c1`, for which the AC50 was > 42 µM (inactive).

Regarding `CC1=C(C(=O)N2CCOCC2)C(c2ccc(O)cc2)NC(=S)N1` (stereo not drawn), the AC50 is > 42 µM (inactive).

`COCCn1c(SCC(=O)N2CCCC2)nnc1-c1ccoc1C`: the AC50 is > 42 µM (inactive).

Regarding `c1ccc2c(c1)OCCOCCOc1ccccc1OCCOCCO2`, the AC50 is > 42 µM (inactive).

For the compound `CC(=O)N(C(C)=O)C1=C(C#N)C2(CCCCC2)Cc2ccccc21`, the AC50 was > 42 µM (inactive).

Take `Cc1nnc(C)n1/N=C/c1cc2ccccc2nc1Cl`: the AC50 was > 42 µM (inactive).

For `CCCCCC(=O)NNC1=NCC(Cc2cccc(Cl)c2)S1` (stereo not drawn), the AC50 was > 42 µM (inactive).

For the compound `C(=N\Nc1ccc2nncn2n1)/c1ccccn1`, the AC50 is > 42 µM (inactive).

On to `COC(=O)C1=C(C)NC(C)=C([N+](=O)[O-])C1c1ccccc1C(F)(F)F` (stereo not drawn), for which the AC50 is > 42 µM (inactive).

Regarding `CCOc1ccccc1/C=N\Nc1cnn(Cc2ccccc2)c(=O)c1Cl`, the AC50 is > 42 µM (inactive).

In the case of `Cc1ccccc1C(=O)NNC(=S)Nc1cccc(C(F)(F)F)c1`, the AC50 is > 42 µM (inactive).

With `C=CCn1c(CCC)nc2ccccc21`, the AC50 is > 42 µM (inactive).

`COC(=O)c1ccncc1C(=O)Nc1ccc(Oc2ncc(C(F)(F)F)cc2Cl)cc1`: the AC50 is > 42 µM (inactive).

Regarding `CS(=O)(=O)N1CCC(Oc2ccccc2C(=O)N2CCNC(=O)C2)CC1`, the AC50 is > 42 µM (inactive).

In the case of `CCn1c(SC(=O)NC2CCCCC2)nnc1-c1cccs1`, the AC50 is > 42 µM (inactive).

For the compound `COCc1nnc(NC(=O)CC(C)C)s1`, the AC50 was > 42 µM (inactive).

For `Cc1ccc(C(=O)O)cc1[N+](=O)[O-]`, the AC50 is > 42 µM (inactive).

Turning to `CCOc1ccc(S(=O)(=O)N2CCN(C(=O)CN3C(=O)NC4(CCCC4)C3=O)CC2)cc1`, the AC50 was > 42 µM (inactive).

`COc1ccc(-n2c(-c3ccccc3)nc3ccccc3c2=O)cc1`: the AC50 was > 42 µM (inactive).

Take `COc1ccc2c(c1)OC[C@H]1[C@H]2N2C(=O)c3ccccc3NC(=O)[C@@]2(C)[C@H]1c1ccccc1`: the AC50 was > 42 µM (inactive).

For `COc1ccc(NC(=O)c2ccc(-c3csc(C)n3)cc2)cc1`, the AC50 is > 42 µM (inactive).

For `FC(F)(F)c1nnc(-c2ccccc2)nc1Oc1ccc(Cl)cc1Cl`, the AC50 is > 42 µM (inactive).

For the compound `Cc1cc(-c2ccc(Cl)cc2Cl)c(C#N)c(=O)[nH]1`, the AC50 was > 42 µM (inactive).

Regarding `CCOc1ccc(/C=N/NS(=O)(=O)c2ccc(C)cc2)cc1OC`, the AC50 is > 42 µM (inactive).

On to `Cc1ccccc1C(=O)NNC(=O)/C=C\C(=O)O`, for which the AC50 was > 42 µM (inactive).

As for `N#C/C(=C\c1cc([N+](=O)[O-])c(N2CCOCC2)cc1N1CCOCC1)c1nc2ccccc2[nH]1`, the AC50 is > 42 µM (inactive).

As for `CCn1cnc2sc(-c3ccccc3)cc2c1=O`, the AC50 was > 42 µM (inactive).

For `CC(NC(=O)c1cnc2n(c1=O)CCS2)c1ccccc1` (stereo not drawn), the AC50 was > 42 µM (inactive).

Turning to `Cc1ccc(C(=O)NCCCN2CCOCC2)cc1`, the AC50 is > 42 µM (inactive).

Turning to `CCN(CC)S(=O)(=O)c1cc(NC(=O)COC(=O)CCc2nc3ccccc3s2)ccc1C`, the AC50 was > 42 µM (inactive).

`CCOC(=O)c1cc2sc(C)cc2n1CC(=O)Nc1ccc2c(c1)OCCO2`: the AC50 is > 42 µM (inactive).

As for `CCN(CC)C(=O)Cn1cc(S(=O)(=O)CC(=O)NCCc2ccc(OC)c(OC)c2)c2ccccc21`, the AC50 is > 42 µM (inactive).

Consider `Cc1ccc(N=c2ssnc2Cl)cc1`, for which the AC50 was > 42 µM (inactive).

On to `O=C(Nc1cccc(Cl)c1)OCc1cncs1`, for which the AC50 was > 42 µM (inactive).

`Cc1ccc(NC(=O)Nc2cccc(C(F)(F)F)c2)nc1`: the AC50 was > 42 µM (inactive).

For `Cc1sc2ncnc(Nc3ccccc3)c2c1C`, the AC50 is > 42 µM (inactive).

In the case of `CCc1c(C)nc(N2CCN(Cc3ccccc3)CC2)[nH]c1=O`, the AC50 was > 42 µM (inactive).

For `O=C(CC1(CC2=NS(=O)(=O)c3ccccc3N2)CCCC1)NCCc1ccccc1`, the AC50 was > 42 µM (inactive).

`Cc1cccc(C)c1NC(=O)C1(N(Cc2ccco2)C(=O)CC2NC(=O)NC2=O)CCCCC1` (stereo not drawn): the AC50 was > 42 µM (inactive).

Take `COC(=O)C1C(c2ccc(OC)c(OC)c2)NC(c2ccc(OC)c(OC)c2)C(C(=O)OC)S1(=O)=O` (stereo not drawn): the AC50 is > 42 µM (inactive).

Consider `CN1c2ccccc2-c2nc3ccccc3n2C1c1ccncc1` (stereo not drawn), for which the AC50 was > 42 µM (inactive).

In the case of `COc1ccccc1N1CCN(C(=O)c2sc3ncnc(N4CCN(c5ccccn5)CC4)c3c2C)CC1`, the AC50 was > 42 µM (inactive).

For `Nc1nc(-c2ccc(Cl)cc2)nc(-c2ccc(Cl)cc2)n1`, the AC50 was > 42 µM (inactive).

On to `COc1cccc(/C=N/n2cnc3ccccc32)c1OC`, for which the AC50 is > 42 µM (inactive).

With `Cc1ccc(C(=O)NCC(=O)Nc2ccc3c(c2)OCCO3)cc1`, the AC50 was 18.5 µM.

As to `O=[N+]([O-])c1ccc(-c2csc(N3CCc4ccccc4C3)n2)cc1`, the AC50 is > 42 µM (inactive).

For the compound `CC(=O)c1cc(C)ccc1OC(=O)c1ccco1`, the AC50 is > 42 µM (inactive).

In the case of `COc1cc(C(=O)NCCC2=CCCCC2)cc(OC)c1OC`, the AC50 is > 42 µM (inactive).

As for `CCOC(=O)c1ccc(CNC(=O)Cn2nnc(-c3ccc(C)cc3)n2)o1`, the AC50 was > 42 µM (inactive).

Consider `Nn1c(SCc2cc([N+](=O)[O-])cc3c2OCOC3)nnc1-c1ccccn1`, for which the AC50 is > 42 µM (inactive).

With `CCN(CC)CCNc1ncnc2c1[nH]c1ccc(OC)cc12`, the AC50 is > 42 µM (inactive).

Consider `O=C(COC(=O)C1CC(=O)N(Cc2ccccc2)C1)Nc1ccccc1F` (stereo not drawn), for which the AC50 is > 21 µM (inactive).

Consider `Cc1n[nH]c(C)c1S(=O)(=O)N(CC(=O)NC1CCCC1)c1ccc(C(C)C)cc1`, for which the AC50 is 38.7 µM.

As for `Cc1nc2ccccc2c2ncccc12`, the AC50 is > 42 µM (inactive).

As for `COc1cc([C@@H]2CC=C(C(=O)O)[C@H](c3ccccc3F)N2S(=O)(=O)c2ccc(C)cc2)cc(OC)c1OC`, the AC50 was > 42 µM (inactive).

As to `Cc1ccc(C(=O)c2cc([N+](=O)[O-])ccc2N2CCCCC2)cc1C`, the AC50 is > 42 µM (inactive).

As to `O=C(NCCCn1ccnc1)Nc1cccc2ccccc12`, the AC50 is > 42 µM (inactive).

For the compound `Cc1cc(C)nc(-n2nc(C)cc2NC(=O)CNCc2ccccc2)n1`, the AC50 is > 42 µM (inactive).

In the case of `COc1ccc(C)cc1S(=O)(=O)N1CCC(C(=O)NCCc2ccccc2)CC1`, the AC50 was > 42 µM (inactive).

In the case of `Oc1cccc(/C=N/N2CCN(c3ccccn3)CC2)c1`, the AC50 is > 21 µM (inactive).

Turning to `CC(=O)NC(CC(C)C)C(=O)NC(CO)C(=O)NC(CCC(=O)O)C(=O)NC(C)C(=O)NC(CC(C)C)C(N)=O` (stereo not drawn) (Ac-LSEAL-NH2; configuration not given here), the AC50 is > 42 µM (inactive).

For `CC(C)n1c(CN(C)c2ccccc2)nc2ccccc21`, the AC50 is > 42 µM (inactive).

In the case of `COc1cccc(/C=N/NC(=O)CNC(=O)c2ccco2)c1O`, the AC50 is > 42 µM (inactive).

`COCC(=O)n1nc(-c2ccc(Cl)cc2)nc1NCc1ccc(F)cc1`: the AC50 is > 42 µM (inactive).

Consider `O=S(=O)(c1ccccc1)N1CCN(c2nc3ccccc3s2)CC1`, for which the AC50 was > 42 µM (inactive).

As to `CCn1nnc(-c2ccccc2NC(=O)c2cnccn2)n1`, the AC50 is > 42 µM (inactive).

On to `CCn1nccc1C(=O)Nc1nccs1`, for which the AC50 was > 42 µM (inactive).

Take `Cc1cccc(N2CCN(CCCNC(=O)c3ccc(NC(=O)C4=CSCCO4)cc3)CC2C)c1` (stereo not drawn): the AC50 is > 42 µM (inactive).

On to `COc1ccc(-n2nc(C(=O)NCC(=O)N3CCCC3)c3ccccc3c2=O)c(OC)c1`, for which the AC50 was > 42 µM (inactive).

With `COc1ccc2c(Cl)c(C(=O)NN3CCN(C)CC3)sc2c1`, the AC50 is > 42 µM (inactive).

In the case of `CCC(=O)N(Cc1ccc2c(c1)OCO2)Cc1cc2cc(OC)ccc2[nH]c1=O`, the AC50 is > 42 µM (inactive).

For `CCCCN(C(=O)C1=COCCO1)c1c(N)n(Cc2ccccc2)c(=O)[nH]c1=O`, the AC50 is > 42 µM (inactive).

As to `O=C(N1CCOCC1)C1(S(=O)(=O)c2ccccc2)CC=CC1`, the AC50 was > 42 µM (inactive).

For `Cc1ccc(OCC(=O)NN2C(=O)c3ccccc3C2=O)c(C)c1`, the AC50 was > 42 µM (inactive).

`N=c1c2c(n(Cc3ccc(Cl)c(Cl)c3)c3c1CCC3)CCCC2`: the AC50 is > 42 µM (inactive).

Turning to `Cc1cc(NC(=O)CC2CCCC2)ccc1Br`, the AC50 was > 42 µM (inactive).

For the compound `CCn1cc(C(=O)N(C)c2ccc(OC)cc2OC)c2cc(OC)c(OC)cc2c1=O`, the AC50 is > 42 µM (inactive).

Take `CC1CCN(CCCCOc2ccc(F)cc2)CC1`: the AC50 is > 42 µM (inactive).

As for `CCCCCCCN1C(Nc2ccccc2)=NC[C@@H]1CC(C)C`, the AC50 is > 21 µM (inactive).

For the compound `O=c1/c(=C/c2ccco2)sc2nc(-c3ccccc3Br)nn12`, the AC50 is > 42 µM (inactive).

For `Cc1ccc(NS(=O)(=O)c2cc(C(=O)Nc3cccc([N+](=O)[O-])c3)ccc2C)cc1`, the AC50 was > 42 µM (inactive).

As to `N#C/C(=C\Nc1ccc2c(c1)OCCO2)c1nc2ccccc2[nH]1`, the AC50 is > 42 µM (inactive).

As for `O=c1c2ccccc2nc(SCc2ccc([N+](=O)[O-])cc2)n1CCCO`, the AC50 is > 42 µM (inactive).

Consider `C[C@@]12C(=O)Nc3ccc(F)cc3C(=O)N1[C@H]1c3ccccc3OC[C@@H]1[C@@H]2c1ccccc1`, for which the AC50 is > 42 µM (inactive).

Turning to `Cc1ccc(N(CC(=O)NC2CCCC2)C(=O)CCC(=O)Nc2ccccn2)cc1C`, the AC50 was > 42 µM (inactive).

For the compound `CCOC(=O)c1sc(NC(=O)CSc2n[nH]c(-c3ccccc3)n2)c(C#N)c1C`, the AC50 is > 42 µM (inactive).
